Results on two molecules are retold here after patent publication US20080199441A1, “Use of ex-vivo cultured hematopoietic cells for treatment of peripheral vascular diseases” (priority 2006, published 2008).

Assay [1] has as its system cord-blood-derived, bone marrow-derived, and peripheral blood derived hematopoietic cells. The following applies: grown without a feeder layer; cited from earlier work.
The subject of assay [2] is hematopoietic stem/progenitor cells (CD34+ or CD133+). The assay is described as follows: Ex vivo expansion of hematopoietic cells. The format is cell-based, human. The following applies: cultured with cytokines plus inhibitor, compared to cells cultured with cytokines alone. As to the method: Cell cultures of human hematopoietic cells: Human umbilical cord blood cells were obtained from umbilical cord blood after normal full-term delivery (informed consent was given). MPB, or BM were obtained from donations (informed consent was given). Samples were either used fresh or collected and frozen according to well known cord blood cryopreservation protocol (Rubinstein et al. 1995) within 24 hours postpartum for UCB or according to common practice regarding MPB and BM. Prior to cryopreservation, blood was sedimented for 30 minutes on […] Starch (hydroxyethyl starch) to remove most RBC. Prior to their use, the cells were thawed in Dextran buffer (Sigma, St. Louis, Mo., USA) containing 2.5% human serum albumin (HSA)(Bayer Corp. Elkhart, Ind., USA) and processed as described herein below. Following thawing, where indicated, the leukocyte-rich fraction was harvested and layered on Ficoll-Hypaque gradient (1.077 g/mL; Sigma Inc, St Louis Mo., USA), and centrifuged at 400×g for 30 minutes. The mononuclear cell fraction in the interface layer was then collected, washed three times, and re-suspended in phosphate-buffered saline (PBS) (Biological Industries, Bet HaEmek, Israel) containing 0.5% human serum albumin (HSA) (Bayer Corp. Elkhart, Ind., USA). […] The purity of the CD133^+ populations thus obtained was 80-95%, as evaluated by flow cytometry. […]

As to `NCCNCCNCCNCCN` [TEPA, tetraethylpentamine], the “fraction of CD34+ cells and long-term clonability” value in assay [1] was “greatly enhanced the fraction of CD34^+ cell and their long-term clonability”.

On to `NC(=O)c1cccnc1` [nicotinamide], for which the “enrichment of stem/early progenitor cell subsets (CD34+CD38− and CD34+Lin−) in cultured population” value in assay [2] is “enriched with subsets of stem/early progenitor cells”.
